Values after ≈ are worked out from the molar mass of the structure shown.
What was measured:
[1] = tested on: Kasumi-1 (acute myeloid leukemia M2 type, AML-M2); assay: Leukemia cell growth inhibition, MTT, 72 h (Example 5); format: cell-based, human; conditions: Homo sapiens, Kasumi 1
Procedure, shortened: (§1)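 6000 cells per well were seeded in RPMI 1640 with 10% FBS, exposed to graded concentrations of 5-substituted tetrandrine derivatives, and held 72 hours at 37° C, 5% CO2. Viable cell concentration was then measured by MTT.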

[2] = tested on: H9 (acute lymphoblastic leukemia, ALL); assay: as above; format: cell-based, human; conditions: Homo sapiens; 72 h, MTT
Procedure, shortened: as §1

[3] = tested on: NB4 (acute promyelocytic leukemia, AML); assay: as above; format: cell-based, human; conditions: Homo sapiens; 72 h, MTT
Procedure, shortened: as §1

[4] = tested on: K562/adr (drug-resistant, chronic myeloid leukemia, CML); assay: as above; format: cell-based, human; conditions: Homo sapiens, K562/Adr; 72 h, MTT
Procedure, shortened: as §1

[5] = tested on: Jurkat (acute lymphoblastic leukemia, ALL); assay: as above; format: cell-based, human; conditions: for IC50 / IC90: Homo sapiens, Jurkat, 72 h, MTT
Procedure, shortened: as §1

[6] = tested on: RPMI8226 (multiple myeloma); assay: Multiple myeloma cell growth inhibition, MTT, 72 h (Example 6); format: cell-based, human; conditions: Homo sapiens, RPMI-8226; 72 h, MTT, RPMI8226
Procedure, shortened: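 RPMI8226 cells (6000 per well) in RPMI 1640 with 10% FBS were exposed to a range of tetrandrine derivative concentrations for 72 h at 37 °C under 5% CO2. Viable cell concentration was then measured by MTT.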

[7] = tested on: MG63 (osteosarcoma); assay: Solid tumor cell growth inhibition, MTT, 72 h (Example 7); format: cell-based, human; conditions: Homo sapiens; 72 h, MTT, MG-63
Procedure, shortened: (§2)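 MTT viability after 72 h compound exposure; 4000 cells/well seeded 24 h beforehand in DMEM high glucose, 10% FBS, 37 °C, 5% CO2. Untreated control taken as 100%.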

[8] = tested on: Hep-2 (laryngeal carcinoma); assay: as above; format: cell-based, human; conditions: Homo sapiens; 72 h, MTT, Hep 2
Procedure, shortened: as §2

[9] = tested on: PANC-1 (pancreatic cancer); assay: as above; format: cell-based, human; conditions: Homo sapiens; 72 h, MTT, PANC-1
Procedure, shortened: as §2

[10] = tested on: CaES-17 (esophageal cancer cell); assay: as above; format: cell-based, human; conditions: Homo sapiens, CaEs17; 72 h, MTT, CAES-17
Procedure, shortened: as §2

[11] = tested on: PC-3 (prostate cancer); assay: as above; format: cell-based, human; conditions: Homo sapiens; 72 h, MTT, PC-3
Procedure, shortened: as §2

[12] = tested on: Huh7 (human liver cancer cell); assay: as above; format: cell-based; conditions: Homo sapiens; 72 h, MTT, Huh-7
Procedure, shortened: as §2

[13] = tested on: Hela (human cervical cancer cell); assay: as above; format: cell-based; conditions: Homo sapiens; 72 h, MTT, Hela
Procedure, shortened: as §2

[14] = tested on: SK-OV-3 (ovarian cancer cell); assay: as above; format: cell-based; conditions: Homo sapiens
Procedure, shortened: as §2

[15] = tested on: Becap37 (human breast cancer cell); assay: as above; format: cell-based; conditions: Homo sapiens; 72 h, MTT, Becap-37
Procedure, shortened: as §2

[16] = tested on: U87 MG (malignant glioma cell); assay: as above; format: cell-based; conditions: Homo sapiens, U-87 MG
Procedure, shortened: as §2

[17] = tested on: CNE (nasopharyngeal carcinoma cell); assay: as above; format: cell-based; conditions: Homo sapiens
Procedure, shortened: as §2

[18] = tested on: MGC 803 (human gastric cancer cell); assay: as above; format: cell-based; conditions: Homo sapiens
Procedure, shortened: as §2

[19] = tested on: RKO (human colon adenocarcinoma cell); assay: as above; format: cell-based; conditions: Homo sapiens; 72 h, MTT, RKO
Procedure, shortened: as §2

[20] = tested on: A549 (human lung cancer); assay: as above; format: cell-based; conditions: Homo sapiens; 72 h, MTT, A549
Procedure, shortened: as §2

Structure (SMILES): COc1ccc2cc1Oc1ccc(cc1)C[C@H]1c3cc(c(OC)cc3CCN1C)Oc1c(OC)c(OC)c(COC(=O)c3ccco3)c3c1[C@H](C2)N(C)CC3 [BS-TE-216]
- IC50 [1]: 3.15 µg/mL (≈ 4.22 µM)
- IC90 [1]: 8.98 µg/mL (≈ 12 µM)
- IC50 [2]: 2.53 µg/mL (≈ 3.39 µM)
- IC90 [2]: 7.29 µg/mL (≈ 9.76 µM)
- IC50 [3]: 1.4 µg/mL (≈ 1.87 µM)
- IC90 [3]: 2 µg/mL (≈ 2.68 µM)
- IC50 [4]: 3.06 µg/mL (≈ 4.1 µM)
- IC90 [4]: 16 µg/mL (≈ 21.4 µM)
- IC50 [5]: 2.52 µg/mL (≈ 3.37 µM)
- IC90 [5]: 8.03 µg/mL (≈ 10.8 µM)
- IC50 [6]: 0.54 µg/mL (≈ 0.723 µM)
- IC90 [6]: 3.14 µg/mL (≈ 4.2 µM)
- IC50 [7]: 4.5 µg/mL (≈ 6.03 µM)
- IC90 [7]: 8.8 µg/mL (≈ 11.8 µM)
- IC50 [8]: 5.42 µg/mL (≈ 7.26 µM)
- IC90 [8]: 16 µg/mL (≈ 21.4 µM)
- IC50 [9]: 15.8 µg/mL (≈ 21.1 µM)
- IC90 [9]: > 16 µg/mL
- IC50 [10]: 5.36 µg/mL (≈ 7.18 µM)
- IC90 [10]: 29.9 µg/mL (≈ 40 µM)
- IC50 [11]: 4.11 µg/mL (≈ 5.5 µM)
- IC90 [11]: 7.84 µg/mL (≈ 10.5 µM)
- IC50 [12]: 2.66 µg/mL (≈ 3.56 µM)
- IC90 [12]: 4.71 µg/mL (≈ 6.31 µM)
- IC50 [13]: 3.82 µg/mL (≈ 5.11 µM)
- IC90 [13]: 10.8 µg/mL (≈ 14.4 µM)
- IC50 [14]: 7 µg/mL (≈ 9.37 µM)
- IC90 [14]: > 16 µg/mL
- IC50 [15]: 5.8 µg/mL (≈ 7.77 µM)
- IC90 [15]: 13 µg/mL (≈ 17.4 µM)
- IC50 [16]: 1.24 µg/mL (≈ 1.66 µM)
- IC90 [16]: 3.74 µg/mL (≈ 5.01 µM)
- IC50 [17]: 3.86 µg/mL (≈ 5.17 µM)
- IC90 [17]: 13.3 µg/mL (≈ 17.8 µM)
- IC50 [18]: 2.51 µg/mL (≈ 3.36 µM)
- IC90 [18]: 4 µg/mL (≈ 5.36 µM)
- IC50 [19]: 2.21 µg/mL (≈ 2.96 µM)
- IC90 [19]: 4.67 µg/mL (≈ 6.25 µM)
- IC50 [20]: 8.6 µg/mL (≈ 11.5 µM)
- IC90 [20]: > 16 µg/mL

Structure (SMILES): COc1ccc2cc1Oc1ccc(cc1)C[C@H]1c3cc(c(OC)cc3CCN1C)Oc1c(OC)c(OC)c(COCc3cccnc3)c3c1[C@H](C2)N(C)CC3 [BS-TE-411]
- IC50 [1]: 0.75 µg/mL (≈ 1.01 µM)
- IC90 [1]: 3.58 µg/mL (≈ 4.81 µM)
- IC50 [2]: 1.23 µg/mL (≈ 1.65 µM)
- IC90 [2]: 2.5 µg/mL (≈ 3.36 µM)
- IC50 [3]: 0.7 µg/mL (≈ 0.941 µM)
- IC90 [3]: 2.6 µg/mL (≈ 3.5 µM)
- IC50 [4]: 0.79 µg/mL (≈ 1.06 µM)
- IC90 [4]: 3.59 µg/mL (≈ 4.83 µM)
- IC50 [5]: 1 µg/mL (≈ 1.34 µM)
- IC90 [5]: 8.5 µg/mL (≈ 11.4 µM)
- IC50 [6]: 0.26 µg/mL (≈ 0.35 µM)
- IC90 [6]: 1.35 µg/mL (≈ 1.81 µM)
- IC50 [7]: 1.26 µg/mL (≈ 1.69 µM)
- IC90 [7]: 3.07 µg/mL (≈ 4.13 µM)
- IC50 [8]: 2.15 µg/mL (≈ 2.89 µM)
- IC90 [8]: 5.69 µg/mL (≈ 7.65 µM)
- IC50 [9]: 2.29 µg/mL (≈ 3.08 µM)
- IC90 [9]: 8.92 µg/mL (≈ 12 µM)
- IC50 [10]: 2.76 µg/mL (≈ 3.71 µM)
- IC90 [10]: 11.8 µg/mL (≈ 15.8 µM)
- IC50 [11]: 2.41 µg/mL (≈ 3.24 µM)
- IC90 [11]: 5.56 µg/mL (≈ 7.47 µM)
- IC50 [12]: 1.13 µg/mL (≈ 1.52 µM)
- IC90 [12]: 1.66 µg/mL (≈ 2.23 µM)
- IC50 [13]: 1.49 µg/mL (≈ 2 µM)
- IC90 [13]: 3.45 µg/mL (≈ 4.64 µM)
- IC50 [14]: 8 µg/mL (≈ 10.8 µM)
- IC90 [14]: > 16 µg/mL
- IC50 [15]: 1.9 µg/mL (≈ 2.55 µM)
- IC90 [15]: 4.9 µg/mL (≈ 6.59 µM)
- IC50 [16]: 1.09 µg/mL (≈ 1.47 µM)
- IC90 [16]: 2.55 µg/mL (≈ 3.43 µM)
- IC50 [17]: 1.32 µg/mL (≈ 1.77 µM)
- IC90 [17]: 3.33 µg/mL (≈ 4.48 µM)
- IC50 [18]: 2.15 µg/mL (≈ 2.89 µM)
- IC90 [18]: 9.02 µg/mL (≈ 12.1 µM)
- IC50 [19]: 0.26 µg/mL (≈ 0.35 µM)
- IC90 [19]: 0.6 µg/mL (≈ 0.807 µM)
- IC50 [20]: 5.5 µg/mL (≈ 7.39 µM)
- IC90 [20]: 15.5 µg/mL (≈ 20.8 µM)

Structure (SMILES): COc1ccc2cc1Oc1ccc(cc1)C[C@H]1c3cc(c(OC)cc3CCN1C)Oc1c(OC)c(OC)c(CNCc3ccc(C)o3)c3c1[C@H](C2)N(C)CC3 [BS-TE-358]
- IC50 [1]: 1.1 µg/mL (≈ 1.47 µM)
- IC90 [1]: 3.71 µg/mL (≈ 4.97 µM)
- IC50 [2]: 1.45 µg/mL (≈ 1.94 µM)
- IC90 [2]: 2.4 µg/mL (≈ 3.22 µM)
- IC50 [3]: 0.8 µg/mL (≈ 1.07 µM)
- IC90 [3]: 2 µg/mL (≈ 2.68 µM)
- IC50 [4]: 0.63 µg/mL (≈ 0.845 µM)
- IC90 [4]: 3.15 µg/mL (≈ 4.22 µM)
- IC50 [5]: 0.55 µg/mL (≈ 0.737 µM)
- IC90 [5]: 4 µg/mL (≈ 5.36 µM)
- anti-Jurkat activity increase over tetrandrine ([5]; compared with tetrandrine): ~4 fold
- IC50 [6]: 0.08 µg/mL (≈ 0.107 µM)
- IC90 [6]: 3.69 µg/mL (≈ 4.95 µM)
- IC50 [7]: 1.5 µg/mL (≈ 2.01 µM)
- IC90 [7]: 2.8 µg/mL (≈ 3.75 µM)
- IC50 [8]: 3.37 µg/mL (≈ 4.52 µM)
- IC90 [8]: 7.54 µg/mL (≈ 10.1 µM)
- IC50 [9]: 2.66 µg/mL (≈ 3.57 µM)
- IC90 [9]: 9.71 µg/mL (≈ 13 µM)
- IC50 [10]: 2.69 µg/mL (≈ 3.61 µM)
- IC90 [10]: 10.1 µg/mL (≈ 13.5 µM)
- IC50 [11]: 3.7 µg/mL (≈ 4.96 µM)
- IC90 [11]: 5.9 µg/mL (≈ 7.91 µM)
- IC50 [12]: 1.35 µg/mL (≈ 1.81 µM)
- IC90 [12]: 1.92 µg/mL (≈ 2.57 µM)
- IC50 [13]: 2.12 µg/mL (≈ 2.84 µM)
- IC90 [13]: 3.97 µg/mL (≈ 5.32 µM)
- IC50 [14]: 4 µg/mL (≈ 5.36 µM)
- IC90 [14]: > 16 µg/mL
- IC50 [15]: 1.96 µg/mL (≈ 2.63 µM)
- IC90 [15]: 4.5 µg/mL (≈ 6.03 µM)
- IC50 [16]: 0.65 µg/mL (≈ 0.871 µM)
- IC90 [16]: 1.99 µg/mL (≈ 2.67 µM)
- IC50 [17]: 2.26 µg/mL (≈ 3.03 µM)
- IC90 [17]: 4.12 µg/mL (≈ 5.52 µM)
- IC50 [18]: 1.39 µg/mL (≈ 1.86 µM)
- IC90 [18]: 7.08 µg/mL (≈ 9.49 µM)
- IC50 [19]: 0.6 µg/mL (≈ 0.804 µM)
- IC90 [19]: 1.67 µg/mL (≈ 2.24 µM)
- IC50 [20]: 4 µg/mL (≈ 5.36 µM)
- IC90 [20]: 16 µg/mL (≈ 21.5 µM)
